# Data published in patent US7183061B2, “Method of expressing Heliothis ecdysone receptor fusion protein” (Syngenta Limited, priority 1996, dated 2007).
# How the values were obtained:
# [1] = test system: Spodoptera exigua; settings: compared with Heliothis; cited from earlier work
# [2] = target: chimeric glucocorticoid VP16/Heliothis ecdysone receptor (UniProt O18473+P04150, DEL153-392/E478D/INS403[…]/INS405[…]/M398P/P396A/P400T/P406S/R399P/S397A/Y393A); assay: GUS levels in transgenic tobacco progeny containing pES3 and pES4; type: in vivo, Heliothis virescens; design: expressed in transfected cells; stably transformed tobacco plants, pES3/pES4 (A11)
# Chain of chimeric glucocorticoid VP16/Heliothis ecdysone receptor (P04150+O18473 fused with the stated changes): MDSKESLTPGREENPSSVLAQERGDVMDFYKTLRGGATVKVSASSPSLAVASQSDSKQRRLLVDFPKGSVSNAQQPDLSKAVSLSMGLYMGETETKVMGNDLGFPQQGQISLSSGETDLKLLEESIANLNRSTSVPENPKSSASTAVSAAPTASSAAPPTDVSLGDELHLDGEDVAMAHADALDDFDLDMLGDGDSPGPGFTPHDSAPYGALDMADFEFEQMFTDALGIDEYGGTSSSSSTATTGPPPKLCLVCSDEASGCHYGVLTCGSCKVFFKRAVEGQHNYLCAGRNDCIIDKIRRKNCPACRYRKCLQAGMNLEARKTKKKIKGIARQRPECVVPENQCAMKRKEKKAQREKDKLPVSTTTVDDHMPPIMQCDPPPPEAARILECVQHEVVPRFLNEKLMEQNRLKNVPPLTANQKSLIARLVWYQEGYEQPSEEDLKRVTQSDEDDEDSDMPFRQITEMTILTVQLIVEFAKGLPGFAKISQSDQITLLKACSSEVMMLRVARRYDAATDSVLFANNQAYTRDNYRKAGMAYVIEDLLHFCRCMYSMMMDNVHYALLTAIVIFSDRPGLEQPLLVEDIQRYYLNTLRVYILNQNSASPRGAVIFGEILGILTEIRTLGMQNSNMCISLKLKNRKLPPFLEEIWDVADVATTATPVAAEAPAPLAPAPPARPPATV
# Description: The methodology described below was used to produce four different stable Tobacco vectors. The method involves three steps: • 1. pbluescript SK HindIII/EcoRI vector was ligated to either GRE6-4635SCaMVGUSNOS HindIII/EcoRI (from p221.10GRE6) or GRE6-6035SCaMVGUSNOS HindIII/EcoRI (from p221.9GRE6) resulting in plasmid pSK-46 and pSK-60. • 2. This step involves the addition of the chimeric receptor (35SGRHEcRNOS or 35SGRVP16HEcRNOS) to pSK-60 or pSK-46. Thus a pSK-60 (or pSK-46) XbaI vector was ligated with either the 3.4 kb 35SGRHEcRNOS XbaI or the 3.0 kb 35SGRVP16HEcRNOS XbaI DNA fragment to produce pSKES1 (pSKGRE6-6035SCaMVGUSNOS-35SGRHEcRNOS), pSKES2 (pSKGRE6-4635 SCaMVGUSNOS-35 SGRHEcRNOS), pSKES3 (pSKGRE6-6035SCaMVGUSNOS-35SGRVP16HEcRNOS) and pSKES4 (pSKGRE6-4635SCaMVGUSNOS-35SGRVP16HEcRNOS). • 3. Transfer from pBluescript based vectors to binary vectors. […] The DNA of the recombinant was characterised by restriction mapping and the sequence of the junctions determined. […]
smiles,measurement,setting,value
"CCc1ccc(C(=O)NN(C(=O)c2cc(C)cc(C)c2)C(C)(C)C)cc1 [RH5992, 3,5-dimethylbenzoic acid 1-1(1,1-dimethylethyl)-2(4-ethylbenzoyl)hydrazide]",sensitivity of species,[1],more sensitive to RH5992 than Heliothis
same,GUS levels relative to transgenic plants containing non-VP16 vectors pES1 and pES2,[2],elevated GUS levels
